In ChEMBL document CHEMBL3751720, “Investigating molecular dynamics-guided lead optimization of EGFR inhibitors” (Bioorg Med Chem, 2016):

Biological target: Epidermal growth factor receptor (Homo sapiens) (UniProt P00533)
Assay: Inhibition of wild-type EGFR (unknown origin) assessed as enzyme residual activity at 10 uM for 60 mins by microplate scintillation counter in presence of [gamma-33P]-ATP

Sequence of Epidermal growth factor receptor (Homo sapiens) (P00533 whole entry): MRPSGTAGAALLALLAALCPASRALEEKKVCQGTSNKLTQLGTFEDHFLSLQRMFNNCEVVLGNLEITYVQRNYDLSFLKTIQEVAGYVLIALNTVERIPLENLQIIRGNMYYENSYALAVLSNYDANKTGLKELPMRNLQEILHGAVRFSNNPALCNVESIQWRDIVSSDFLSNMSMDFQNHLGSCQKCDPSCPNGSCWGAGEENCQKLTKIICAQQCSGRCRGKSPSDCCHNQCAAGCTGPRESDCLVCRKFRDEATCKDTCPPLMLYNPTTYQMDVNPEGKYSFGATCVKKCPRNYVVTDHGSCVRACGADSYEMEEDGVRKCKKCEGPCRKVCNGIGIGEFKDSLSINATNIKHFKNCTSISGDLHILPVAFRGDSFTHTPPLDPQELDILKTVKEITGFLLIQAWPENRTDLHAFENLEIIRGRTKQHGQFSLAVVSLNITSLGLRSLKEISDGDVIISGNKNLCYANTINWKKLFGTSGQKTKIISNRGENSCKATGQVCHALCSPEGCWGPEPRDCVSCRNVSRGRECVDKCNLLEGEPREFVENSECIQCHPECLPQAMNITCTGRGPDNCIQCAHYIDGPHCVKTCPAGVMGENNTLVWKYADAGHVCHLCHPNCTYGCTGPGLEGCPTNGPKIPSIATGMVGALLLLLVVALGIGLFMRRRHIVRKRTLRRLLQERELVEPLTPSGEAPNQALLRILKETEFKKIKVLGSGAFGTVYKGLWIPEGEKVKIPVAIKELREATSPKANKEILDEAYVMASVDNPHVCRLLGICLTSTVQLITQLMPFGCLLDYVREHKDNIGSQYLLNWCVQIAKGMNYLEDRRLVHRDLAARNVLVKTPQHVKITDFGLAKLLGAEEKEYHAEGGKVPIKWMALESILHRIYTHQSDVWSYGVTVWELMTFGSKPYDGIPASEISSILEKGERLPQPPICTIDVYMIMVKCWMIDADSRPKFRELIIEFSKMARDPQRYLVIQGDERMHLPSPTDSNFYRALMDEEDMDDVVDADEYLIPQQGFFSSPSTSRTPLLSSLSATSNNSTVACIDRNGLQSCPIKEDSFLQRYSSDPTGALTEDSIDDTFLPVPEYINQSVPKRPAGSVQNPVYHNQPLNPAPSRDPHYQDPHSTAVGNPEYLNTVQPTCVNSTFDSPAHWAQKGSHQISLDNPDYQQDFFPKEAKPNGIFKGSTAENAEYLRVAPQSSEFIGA

Q: With `Cn1c(=O)c(-c2c(Br)cccc2Br)cc2c(N)nc(Nc3ccccc3)nc21` as the compound, how does the Activity read?
A: 3%

Q: `Cn1c(=O)c(-c2c(Cl)cccc2Cl)cc2c(N)nc(Nc3ccccc3)nc21` was tested. Which Activity did it give?
A: 14%

Q: Which Activity does the source give for `Cn1c(=O)c(-c2ccccc2)cc2c(N)nc(Nc3ccccc3)nc21` here?
A: 49%

Q: With `Cn1c(=O)c(-c2c(F)cccc2C(F)(F)F)cc2c(N)nc(Nc3ccccc3)nc21` as the compound, how does the Activity read?
A: 61%
